Molecules are shown by their SMILES.

Experimental findings from patent EP1939270B1, “Demetallation of oil and hydrocarbon cuts and use of same” (TOTAL RAFFINAGE MARKETING, priority 2006, dated 2008) are described below.

Assay [1] is described as follows: Demetallation of model mixture (DAO + NiETIO + OEPVO): catalysed oxidation, metal removal, residual nickel by X-ray fluorescence. As to conditions: by mass. The source says:
(§1) Le procédé de démétallation selon l'invention a été testé sur un mélange modèle de fractions pétrolières lourdes, composé d'un produit pétrolier ne contenant pas de nickel ni de vanadium, auxquelles ont été ajoutées des porphyrines modèles de nickel et de vanadium (exemples 1 à 4, 6 et 7).
(§2) La fraction pétrolière utilisée dans les exemples (DAO) est une huile désasphaltée au solvant, issue d'un résidu sous vide du brut Safaniya d'Arabie Saoudite. Il s'agit donc d'un résidu sous vide dépourvu d'asphaltènes, et donc de pétroporphyrines, pauvre en nickel (<0,2 ppm) et en vanadium (<0,1 ppm).
(§3) Les porphyrines modèles utilisées sont l'étioporphyrine de nickel (NiETIO) et l'octaéthylporphyrine de vanadyle (OEPVO), qui sont disponibles commercialement. Leurs formules sont les suivantes : [drawing 5] […]
(§4) Les différentes fractions sont ensuite évaporées afin de recueillir la fraction pétrolière de 2,02 g (soit un bilan matière de 97 %) qui est ensuite analysée par spectrométrie à fluorescence X pour en déceler 31 ppm de nickel et 54 ppm de Vanadium. […]
(§5) Les différentes fractions sont ensuite évaporées afin de recueillir la fraction pétrolière avec un bilan matière de 97% (en masse) et des teneurs en Nickel et Vanadium analysées par spectrométrie à fluorescence X de moins de 10 ppm (en masse). […]

Assay [2] in a line: Demetallation of model mixture (DAO + NiETIO + OEPVO): catalysed oxidation, metal removal, residual vanadium by X-ray fluorescence. As to conditions: by mass.
Source text: as §1, §2, §3, §4, §5

Consider `Clc1cccc(Cl)c1-c1c2nc(c(-c3c(Cl)cccc3Cl)c3ccc([n-]3)c(-c3c(Cl)cccc3Cl)c3nc(c(-c4c(Cl)cccc4Cl)c4ccc1[n-]4)C=C3)C=C2.[Mn+2]` [Exemple 4, méso-tétra-(2,6-dichloro) phényl porphyrinede manganèse], for which the “Après traitement Ni Taux d'élimination” value in assay [1] was 93,8%. Moreover, in assay [2], the “Après traitement V Taux d'élimination” value is reported as 96,1%.
